From BindingDB's records for doi:10.7270/Q2NG4P21 (Nmmlsc, 2009) come the findings set out here.

The first assay addresses T1, Bcl-2-like protein 10 [11-204] (Homo sapiens, UniProt Q9HD36).
T1 construct: 11-204
T1 sequence (Q9HD36 whole entry): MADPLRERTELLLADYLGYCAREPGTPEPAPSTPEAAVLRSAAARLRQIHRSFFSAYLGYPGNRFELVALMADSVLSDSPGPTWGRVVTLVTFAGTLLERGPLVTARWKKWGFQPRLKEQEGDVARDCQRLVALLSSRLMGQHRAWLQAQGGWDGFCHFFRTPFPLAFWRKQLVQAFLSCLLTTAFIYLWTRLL
Nature of the assay: Bcl-B Bim peptide interaction hit potency – biochemical, dose response, multiplexed HTS hits, confirmation (AID 2077).
Settings: not given
The compound `CCN(CC)c1ccc(NC(=O)c2ccccc2Br)cc1S(=O)(=O)Nc1ccccc1OC` displayed an EC50 of 8.66 µM.

`COc1ccc(N2C(=O)C(Cl)=C(Oc3cccc(OC)c3)C2=O)cc1` [3-chloro-4-(3-methoxyphenoxy)-1-(4-methoxyphenyl)-1H-pyrrole-2,5-dione] came in with an EC50 of 0.61 µM. In turn, `O=C1C(=Cc2ccco2)NC(=S)N1c1ccccc1` [(5E)-5-(furan-2-ylmethylidene)-3-phenyl-2-sulfanylideneimidazolidin-4-one] showed an EC50 of 2.9 µM.

Regarding `O=c1c2c(n3nnnc3n1Cc1ccccc1)-c1ccccc1CC21CCCC1` [MLS000030575], the concentration giving a half-maximal response (EC50) is 3.57 µM. On to `O=C1NC(=O)C2(Cc3c(nc4ccccn4c3=O)N3CCCCCC32)C(=O)N1Cc1ccccc1` (centres undefined) [MLS000083668], for which it took 6.4 µM to reach a half-maximal effect (EC50). Same read-out and setting: next, `CC(=O)Nc1ccc(-n2cc(-c3ccccc3)[nH]c2=S)cc1` [MLS001001946]: 0.92 µM; `O=C(Nc1nnc(COc2ccc(Cl)cc2)s1)c1ccco1` [N-[5-[(4-chloranylphenoxy)methyl]-1,3,4-thiadiazol-2-yl]furan-2-carboxamide]: 1.46 µM. For the compound `S=c1[nH]cc(-c2ccccc2)n1-c1ccccc1` [SMR000196363], it took 0.32 µM to reach a half-maximal effect (EC50).

`Cc1ccc(C=NNC(=O)CSc2nnc(-c3ccc(Cl)cc3)n2-c2ccccc2)o1` [SMR000218122]: the half-maximal effective concentration (EC50) was 16.4 µM.

The same assay, now with this note: inactive by the depositor's call.
`O=c1[nH]c(O)c(Cc2ccc(-c3cc(Cl)ccc3[N+](=O)[O-])o2)c(=O)[nH]1` returned a 50% effective concentration (EC50) of 36.5 µM. For `O=C(NCc1ccccc1)c1ccc2nc(-c3ccco3)c(-c3ccco3)nc2c1` [2,3-bis(furan-2-yl)-N-(phenylmethyl)quinoxaline-6-carboxamide], the EC50 stood at 31.6 µM. The compound `Cc1cc(-c2cc(-c3ccc(Cl)cc3)nc(N)c2C#N)co1` [2-azanyl-6-(4-chlorophenyl)-4-(5-methylfuran-3-yl)pyridine-3-carbonitrile] yielded an EC50 of 15.2 µM. `Clc1nc(NCc2cccnc2)nc(N2CCOCC2)n1` [MLS000121154] came in with an EC50 of 13.5 µM. Regarding `COc1ccccc1-n1c(-c2ccccc2)c[nH]c1=S` [MLS001007615], the EC50 is 24.4 µM.
